Assay results from article PMC11762167, “G Protein-Coupled Receptor 17 Inhibits Glucagon-like Peptide-1 Secretion via a Gi/o-Dependent Mechanism in Enteroendocrine Cells” (Biomolecules, 2024).

How the values were obtained:
GLUTag cells = assay: GLP-1 secretion from control-transduced or untransduced GLUTag cells; format: cell-based, murine
Procedure: (§1) GLUTag cells were maintained in Dulbecco’s Modified Eagle Medium (DMEM) supplemented with 10% fetal bovine serum and 1% penicillin–streptomycin in a humidified incubator at 37 °C and 5% CO2. For adenovirus transduction, GLUTag cells were seeded into poly-D-lysine coated 96-well plates or 4-chamber slides. The next day, cells were transduced with adenoviruses (100–1250 viral particles per cell at time of seeding) as indicated. After 24–30 h, adenovirus-containing media was changed to serum-free growth media for overnight serum starvation. The following day, GLUTag cells were used for cAMP or calcium signaling assays, GLP-1 secretion assays, or immunostaining and imaging.
(§2) GLUTag cells were seeded into poly-D-lysine-coated 96-well plates and transduced with adenovirus as specified above and then tested for GLP-1 secretion. Medium was removed and cells were washed two times with GLP-1 secretion buffer (138 mM NaCl, 4.5 mM KCl, 4.2 mM NaHCO3, 2.5 mM CaCl2, 1.2 mM MgCl2, 10 mM HEPES, 1 mM glucose, and 0.1% bovine serum albumin, pH 7.4). Cells were stimulated for 2 h with indicated treatments diluted in GLP-1 secretion buffer for a total volume of 200 µL/well at 37 °C and 5% CO2. Plates were then centrifuged at 300× g for 1 min at 4 °C, and 75 µL of the supernatant was removed and frozen at −80 °C until subsequent GLP-1 quantification. Total GLP-1 was quantified using the Meso Scale Discovery Total GLP-1 V-PLEX kit (Rockville, MD, USA; K1503PD) according to manufacturer’s instructions. For PTX treatment conditions, cells were pretreated with 100 ng/mL PTX overnight. For experiments with YM-254890, cells were pretreated for 15 min at 37 °C and 5% CO2.

hGPR17L [1] = biological target: T1, hGPR17L (Homo sapiens, UniProt Q13304); assay: Calcium mobilization in HEK293 cells transfected with hGPR17L; format: cell-based
Procedure: (§3) HEK293 cells were maintained and transfected as previously described.
(§4) Calcium flux in HEK293 cells was measured as previously described.

hGPR17S [2] = biological target: T2, hGPR17S (Homo sapiens, UniProt Q13304); assay: Calcium mobilization in HEK293 cells transfected with hGPR17S; format: cell-based
T2 construct: host or cells: HEK293 cells (ATCC CRL-1573), transient transfection
Procedure: as §3, §4

hGPR17L [3] = biological target: T1, hGPR17L; assay: Membrane β-arrestin recruitment in HEK293 cells transfected with hGPR17L; format: cell-based
Procedure: (§5) Membrane β-arrestin recruitment measurements were conducted using a luminescent membrane β-arrestin recruitment reporter assay. HEK293 cells were seeded into white, opaque, poly-D-lysine-coated 96-well plates and transiently transfected using Lipofectamine 3000 (Thermo Fisher Scientific, Waltham, MA, USA) according to the manufacturer’s protocol on the following day. At 48 h post-transfection, cells were washed twice with assay buffer (HBSS, 20 mM HEPES, pH 7.4) and allowed to equilibrate to room temperature for 15 min in assay buffer. Cells were then loaded with coelenterazine h (Nanolight Technology, Prolume Ltd., Lakeside, AZ, USA; 5 µM final concentration) for 5 min in the dark. Luminescence was read using a SpectraMax iD3 (Molecular Devices) with 1 s integration time. Baseline luminescence was read every 2 min for 6 min. Agonist was added and then luminescence was read every 2 min for 30 min.

hGPR17S [4] = biological target: T2, hGPR17S; assay: Membrane β-arrestin recruitment in HEK293 cells transfected with hGPR17S; format: cell-based
Procedure: as §5

mGPR17 [5] = biological target: T3, mGPR17 (Mus musculus, UniProt Q6NS65); assay: Membrane β-arrestin recruitment in HEK293 cells transfected with mGPR17; format: cell-based
Procedure: as §5

mGPR17 [6] = biological target: T3, mGPR17; assay: Endpoint cAMP in GLUTag cells expressing mGPR17; format: cell-based; design: host or cells: GLUTag cells, adenoviral transduction
Procedure: as §1
Endpoint cAMP measurements were conducted as follows. GLUTag cells were seeded into poly-D-lysine-coated 96-well plates and transduced with adenovirus as specified above and then tested for cAMP signaling. Medium was removed and cells were washed with cAMP stimulation buffer (Hanks’ balanced salt solution (HBSS), 20 mM HEPES, pH 7.4) and then incubated in cAMP stimulation buffer for 30 min at 37 °C and 5% CO2. Cells were then treated for 30 min with agonist and forskolin in the presence of 500 µM IBMX at 37 °C and 5% CO2. Stimulation buffer was then decanted, and cAMP lysis buffer (50 mM HEPES, 10 mM CaCl2, 0.35% Triton X-100, and 500 µM IBMX) was added and shaken at 700 rpm for 1 h. Lysate was transferred to a 384-well plate, and the cAMP levels were quantified using the Cisbio HTRF cAMP (Gi kit; Revvity, Waltham, MA, USA) according to the manufacturer’s protocol.

mGPR17 [7] = biological target: T3, mGPR17; assay: GLP-1 secretion from GLUTag cells expressing mGPR17; format: cell-based; design: host or cells: GLUTag cells, adenoviral transduction; conditions: 100 µM MDL29,951, GLUTag mGPR17
Procedure: as §1
as §2, with “Cells were stimulated for 2 h with indicated treatments diluted in GLP-1 secretion buffer for a total volume of 200 µL/well at 37 °C and 5% CO2.” left out, “For PTX treatment conditions, cells were pretreated with 100 ng/mL PTX overnight. For experiments with YM-254890, cells were pretreated for 15 min at 37 °C and 5% CO2.” left out

mGPR17 [8] = biological target: T3, mGPR17; assay: GloSensor cAMP in HEK293 cells transfected with mGPR17; format: cell-based; design: host or cells: GLUTag cells, adenoviral transduction
Procedure: as §3
Live-cell, real-time cAMP measurements were performed using Promega (Madison, WI, USA) GloSensor cAMP luminescent biosensor technology. Glosensor cAMP experiments were conducted as previously described in GLUTag cells and HEK293 cells.

hGPR17L [9] = biological target: T1, hGPR17L; assay: GLP-1 secretion from GLUTag cells expressing hGPR17L; format: cell-based; design: host or cells: GLUTag cells (murine enteroendocrine line), adenoviral transduction
Procedure: as §1, §2

[10] = read-out: β-arrestin Potency EC50

T2 sequence (Q13304 29-367): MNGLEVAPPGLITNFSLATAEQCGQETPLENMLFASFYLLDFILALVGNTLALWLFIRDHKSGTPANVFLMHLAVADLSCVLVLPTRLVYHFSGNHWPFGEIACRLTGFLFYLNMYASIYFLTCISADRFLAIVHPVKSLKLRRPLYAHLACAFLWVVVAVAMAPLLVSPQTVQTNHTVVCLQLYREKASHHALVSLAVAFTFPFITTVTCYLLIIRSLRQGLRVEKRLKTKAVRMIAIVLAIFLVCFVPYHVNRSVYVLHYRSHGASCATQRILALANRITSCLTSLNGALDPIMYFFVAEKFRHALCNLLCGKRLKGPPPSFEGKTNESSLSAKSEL
T3 sequence (Q6NS65 whole entry): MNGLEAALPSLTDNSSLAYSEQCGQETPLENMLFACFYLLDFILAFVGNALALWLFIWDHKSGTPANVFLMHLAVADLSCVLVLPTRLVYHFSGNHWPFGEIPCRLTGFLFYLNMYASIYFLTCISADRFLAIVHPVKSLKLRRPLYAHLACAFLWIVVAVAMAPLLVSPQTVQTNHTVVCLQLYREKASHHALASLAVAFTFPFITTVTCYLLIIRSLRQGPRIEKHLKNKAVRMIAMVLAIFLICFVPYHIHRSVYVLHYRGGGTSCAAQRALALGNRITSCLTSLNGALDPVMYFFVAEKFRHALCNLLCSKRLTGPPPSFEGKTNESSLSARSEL
T1 sequence (Q13304 whole entry): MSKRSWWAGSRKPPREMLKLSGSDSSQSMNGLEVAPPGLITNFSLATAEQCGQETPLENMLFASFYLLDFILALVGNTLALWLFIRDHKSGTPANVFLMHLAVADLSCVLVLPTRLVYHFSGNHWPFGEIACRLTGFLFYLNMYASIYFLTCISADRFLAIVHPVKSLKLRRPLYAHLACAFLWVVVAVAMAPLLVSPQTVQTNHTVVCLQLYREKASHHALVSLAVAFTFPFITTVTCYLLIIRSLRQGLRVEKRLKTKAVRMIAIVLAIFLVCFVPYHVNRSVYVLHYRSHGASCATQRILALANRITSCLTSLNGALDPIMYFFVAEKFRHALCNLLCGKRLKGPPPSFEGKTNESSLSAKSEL

## O=C(O)CCc1c(C(=O)O)[nH]c2cc(Cl)cc(Cl)c12 [MDL29,951]
GLUTag cells; 100 nM MDL29,951, control-transduced cells
  effect on F/I-stimulated GLP-1 secretion: no effect
GLUTag cells; 100 nM or 100 µM MDL29,951, control-transduced
  effect on GLP-1 secretion under basal conditions: no effect
GLUTag cells; 100 µM MDL29,951, control adenovirus
  effect on F/I-stimulated GLP-1 secretion: no effect
hGPR17L [1]
  Calcium Emax (Mean Peak ΔF/F): 1.92±0.22
  Calcium Potency (pEC50): 7.29±0.11
hGPR17L [1]; read-out: Calcium Potency EC50
  EC50: 51 nM
hGPR17S [2]
  Calcium Emax (Mean Peak ΔF/F): 1.84±0.11
  Calcium Potency (pEC50): 7.37±0.10
hGPR17S [2]; read-out: Calcium Potency EC50
  EC50: 43 nM
hGPR17L [3]
  β-arrestin Emax (Peak ΔRLU/RLU): 0.50±0.03
  β-arrestin Potency (pEC50): 6.72±0.09
hGPR17L [3]; [10]
  EC50: 190 nM
hGPR17S [4]
  β-arrestin Emax (Peak ΔRLU/RLU): 0.50±0.04
  β-arrestin Potency (pEC50): 6.62±0.08
hGPR17S [4]; [10]
  EC50: 240 nM
mGPR17 [5]
  β-arrestin Emax (Peak ΔRLU/RLU): 0.54±0.03
  β-arrestin Potency (pEC50): 6.69±0.10
mGPR17 [5]; [10]
  EC50: 200 nM
mGPR17 [6]; 10 µM forskolin, GLUTag mGPR17
  concentration of maximal inhibition of forskolin-stimulated cAMP: 1 µM
mGPR17 [6]; mGPR17 (100), log [MDL29,951] (M) -4.0 vs. Vehicle, Forskolin stimulation, Figure 4B
  Mean Diff. (Tukey's multiple comparisons test), cAMP, Row 10 vs. Row 11: -19.04
mGPR17 [6]; mGPR17 (100), log [MDL29,951] (M) -4.6 vs. Vehicle, Forskolin stimulation, Figure 4B
  Mean Diff. (Tukey's multiple comparisons test), cAMP, Row 9 vs. Row 11: -22.19
mGPR17 [6]; mGPR17 (100), log [MDL29,951] (M) -5.2 vs. Vehicle, Forskolin stimulation, Figure 4B
  Mean Diff. (Tukey's multiple comparisons test), cAMP, Row 8 vs. Row 11: -23.87
mGPR17 [6]; mGPR17 (100), log [MDL29,951] (M) -5.8 vs. Vehicle, Forskolin stimulation, Figure 4B
  Mean Diff. (Tukey's multiple comparisons test), cAMP, Row 7 vs. Row 11: -30.13
mGPR17 [6]; mGPR17 (100), log [MDL29,951] (M) -6.4 vs. Vehicle, Forskolin stimulation, Figure 4B
  Mean Diff. (Tukey's multiple comparisons test), cAMP, Row 6 vs. Row 11: -28.75
mGPR17 [6]; mGPR17 (100), log [MDL29,951] (M) -7.0 vs. Vehicle, Forskolin stimulation, Figure 4B
  Mean Diff. (Tukey's multiple comparisons test), cAMP, Row 5 vs. Row 11: -21.6
mGPR17 [6]; mGPR17 (100), log [MDL29,951] (M) -7.6 vs. Vehicle, Forskolin stimulation, Figure 4B
  Mean Diff. (Tukey's multiple comparisons test), cAMP, Row 4 vs. Row 11: -16.65
mGPR17 [6]; mGPR17 (100), log [MDL29,951] (M) -8.2 vs. Vehicle, Forskolin stimulation, Figure 4B
  Mean Diff. (Tukey's multiple comparisons test), cAMP, Row 3 vs. Row 11: -3.513
mGPR17 [6]; mGPR17 (100), log [MDL29,951] (M) -8.8 vs. Vehicle, Forskolin stimulation, Figure 4B
  Mean Diff. (Tukey's multiple comparisons test), cAMP, Row 2 vs. Row 11: -3.853
mGPR17 [6]; mGPR17 (100), log [MDL29,951] (M) -9.4 vs. Vehicle, Forskolin stimulation, Figure 4B
  Mean Diff. (Tukey's multiple comparisons test), cAMP, Row 1 vs. Row 11: -5.46
mGPR17 [7]
  effect on F/I-stimulated GLP-1 secretion: significantly inhibited
mGPR17 [8]; 3 µM forskolin
  cAMP Maximum Inhibition (% Inhibition): 61±3.4%
  cAMP Potency (pEC50) (reversal of inhibition): 4.74±0.23
  cAMP Potency (pIC50): 8.48±0.20
mGPR17 [8]; 3 µM forskolin, read-out: cAMP Potency EC50 (reversal of inhibition)
  EC50: 18000 nM
mGPR17 [8]; 3 µM forskolin-stimulated GloSensor cAMP, read-out: cAMP Potency IC50
  IC50: 3.3 nM
mGPR17 [8]; 100 μM MDL29,951, 3 µM forskolin
  cAMP Effect of 100 μM MDL (% Inhibition): 45±6.3%
hGPR17L [9]
  concentration at which maximum inhibition of F/I-stimulated GLP-1 secretion was observed: 25 µM
hGPR17L [9]; 100 nM MDL29,951, 10 μM forskolin and 10 μM IBMX
  effect on F/I-stimulated GLP-1 secretion: no effect
hGPR17L [9]; 100 nM or 100 µM MDL29,951, hGPR17L-transduced
  effect on GLP-1 secretion under basal conditions: no effect
hGPR17L [9]; 10 µM forskolin and 10 µM IBMX, no antagonist, read-out: IC50, inhibition of F/I-stimulated GLP-1 secretion
  IC50: 300 nM
hGPR17L [9]; 100 μM MDL29,951
  inhibition of F/I-stimulated GLP-1 secretion: 30 ± 7.7%
hGPR17L [9]; 100 µM MDL29,951, 300 nM PMA
  effect on PMA-stimulated GLP-1 secretion as compared to vehicle-treated cells (raw data): significantly inhibited
hGPR17L [9]; no antagonist
  pIC50, inhibition of F/I-stimulated GLP-1 secretion: 6.53 ± 0.31
